# Data: patent publication US20250186336A1, “METHOD OF TREATING WET AGE-RELATED MACULAR DEGENERATION” (EYEPOINT PHARMACEUTICALS, INC., priority 2022, published 2025)
# Where two headings read alike, the source gives them in different places.
# Key:
# [1] = test system: Laser-Induced Choroidal Neovascularization (CNV); experiment: Swine model of laser-induced choroidal neovascularization, safety and efficacy (Example 7); type: in vivo
# Method: Safety and efficacy of a vorolanib insert were evaluated in a Swine (Mini-pig) Model of Laser-Induced Choroidal Neovascularization (CNV). The primary objective of this study was to evaluate the long-term safety and inhibition of vascular permeability and neovascularization in a laser-induced model of choroidal neovascularization (CNV) using a vorolanib insert in swine.
# On the day of lasering (Groups 1-4) animals were treated with an 810 nm diode laser delivered through an indirect ophthalmoscope. Approximately 6 single laser spots were placed between retinal veins. Both eyes underwent laser treatment according to the schedule in the table above.
# On the day of intravitreal injections animals were anesthetized and the eyes were aseptically prepared. […] Animals were allowed to recover normally from the procedure. The pigs were given a topical drop of antibiotic ophthalmic solution 4-6 hours later, and then BID for 2 additional days with at least 6 hours between doses. Animals were dosed on either Day 0 immediately following laser CNV induction or 7 days prior to laser CNV induction according to the schedule in the table above. […]
# At time points indicated by the experimental design table, following final data collections, animals were euthanized. Histology was evaluated for eyes from Groups 5-6.
# [2] = Solubility of vorolanib in water; type: physicochemical
# Source text: Vorolanib has the chemical designation (S,Z)—N-(1-(Dimethylcarbamoyl) pyrrolidin-3-yl)-5-((5-fluoro-2-oxoindolin-3-ylidene)methyl)-2,4-dimethyl-1H-pyrrole-3-carboxamide. Synonyms include the term “X-82”. The molecular formula is C23H26FN5O3. […]
# [3] = Intravitreal pharmacokinetic study of vorolanib insert (Example 5A); type: in vivo, Male Dutch Belted Rabbits; conditions: for vitreous level of vorolanib at steady state: intravitreal; for AUC(0-t): read-out: vitreous AUClast
# Method: An Intravitreal Pharmacokinetic Study was performed in Male Dutch Belted Rabbits. The objective of this study was to characterize the plasma and ocular tissue pharmacokinetics of a vorolanib insert following bilateral intravitreal injection on Day 1. Animals were evaluated up to 24 months following placement of the intravitreal insert.
# The low dose group (1) received 3 inserts per eye for a total dose of 630 μg per eye. The high dose group (2) animals received 6 inserts per eye given in 2 separate injections (3 inserts per injection) for a total dose of 1,260 μg per eye.
# Prior to each scheduled sacrifice point, one whole blood sample was collected from a targeted 2 animals per group via puncture of a marginal ear vein. Samples were tested for levels of vorolanib and its metabolite. Two animals per group were euthanized on day 1 at 6, 12, 24 and 48 hours, on days 7 and 14, and at 1, 2, 4, 6, 8, 16 and 24 months.
# [4] = Intravitreal pharmacokinetic study of vorolanib insert (Example 5B); type: in vivo, Dutch Belted Rabbits
# Method: Another Intravitreal Pharmacokinetic Study was performed in Dutch Belted Rabbits. The objective of this study was to evaluate the plasma and ocular pharmacokinetics of a vorolanib insert following bilateral intravitreal injection in rabbit eyes. Animals were evaluated up to 12 months following placement of the intravitreal insert.
# Dutch Belted rabbits were administered vorolanib inserts in each eye by intravitreal injection. Group 1 eyes received 1 insert containing 643 μg of vorolanib, and Group 2 eyes received 2 inserts containing 900 μg total. Blood samples were collected at 2, 7, 14, and 28 days and then once monthly for months 2-12. Inserts were recovered at 2, 7, and 14 days and then at 1, 2, 4, 6, 8, 10, and 12 months. Residual vorolanib levels were determined in all explants using high-performance liquid chromatography. The vorolanib release rate was estimated based on residual levels in the explants. Plasma and ocular tissues were separated and analyzed for vorolanib and its metabolite using liquid chromatography mass spectrometry.
# [5] = 18 month intravitreal toxicity and plasma pharmacokinetics study (Example 6); type: in vivo
# Method: An 18 month intravitreal toxicity study for the insert was also performed in 80 Dutch Belted rabbits (40 male and 40 female). Animals were evaluated for a period of 6 and 18 months following placement of intravitreal inserts. The objective was to characterize the ocular toxicity, plasma pharmacokinetics and biodegradation of a vorolanib insert following bilateral intravitreal injection.
# The tables below describe the group assignments and dose levels. For the toxicology groups, animals were sacrificed at 6 months and 18 months. For the plasma pharmacokinetic analysis, blood samples were collected at Days 1, 3, and 7 and then 1, 2, 3, 4, 5, 6, 12, 14, 16 and 18 Months.
# The placebo group (1) animals received two placebo inserts by injection in each eye. The low dose group (2) animals received 2 inserts in each eye. The mid dose group (3) animals received 3 inserts in each eye given in 2 separate injections. The high dose group (4) animals received 4 inserts in each eye given in 2 separate injections (2 inserts/injection). The highest dose group (5) animals received 6 inserts in each eye given in 2 separate injections (3 inserts/injection).
# At each scheduled timepoint, whole blood was collected via puncture of a marginal ear vein. Samples were analyzed for clinical pathology and plasma pharmacokinetics. Animals were euthanized according to the schedules described above. […]
# [6] = male, Dutch Belted, rabbit, vitreous humor, topical or ocular, 630 ug, through day 180
# [7] = male, Dutch Belted, rabbit, vitreous humor, topical or ocular, 1260 ug, through day 180
compound,measurement,setting,value
"aflibercept: VEGF inhibitor (Regeneron), intravitreal injection, comparator in the swine CNV model",reduction in Corrected Total Lesion Fluorescence (CTLF) value,"[1]; Day 7 to Day 28, aflibercept 2 mg, 50 μL/eye IVT, Day 0",largest reduction in CTLF values
same,efficacy in the model,[1]; aflibercept 2 mg,normal amounts of efficacy
"Cc1[nH]c(/C=C2\C(=O)Nc3ccc(F)cc32)c(C)c1C(=O)N[C@H]1CCN(C(=O)N(C)C)C1 [vorolanib, (S,Z)—N-(1-(Dimethylcarbamoyl)pyrrolidin-3-yl)-5-((5-fluoro-2-oxoindolin-3-ylidene)methyl)-2,4-dimethyl-1H-pyrrole-3-carboxamide]",solubility,[2],< 0.01 mg/mL
same,change in plasma levels,[3]; after 99 days,No apparent change
same,vorolanib levels in the vitreous and the retina/choroid relative to IC50 for VEGFR,[3]; at the time points tested,remained significantly above the IC50 for VEGFR
same,retina/choroid level at steady state,"[3]; high dose 1,260 μg per eye",89 ng/g
same,vitreous level of vorolanib at steady state,"[3]; high dose 1,260 μg per eye (6 inserts)",97 ng/mL
same,steady state reached by,[3]; in vivo,≤ 105 days
same,burst period of drug release,"[3]; in vivo, before steady state",90 days
same,retina/choroid level at steady state,[3]; low dose 630 μg per eye,49 ng/g
same,vitreous level of vorolanib at steady state,[3]; low dose 630 μg per eye (3 inserts),56 ng/mL
same,Cmax,[3]; [6],0.232 µg/mL
same,Tmax,[3]; [6],14 days
same,AUC(0-t),[3]; [6],316 µg·h/mL
same,Cmax,[3]; [7],1.7 µg/mL
same,AUC(0-t),[3]; [7],1580 µg·h/mL
same,vorolanib plasma levels in the PK study,[3]; plasma,low pg/mL range
same,concentration at 10 months,"[4]; Dutch Belted, rabbit, in vivo",< 0.01 µg/mL
same,drop in mean vorolanib concentration in ocular tissues and plasma,"[4]; Dutch Belted, rabbit, in vivo",85%-99%
same,vorolanib exposure rank order,[4]; ocular tissues and plasma,choroid=retina=vitreous>aqueous humor>plasma
same,concentrations in target ocular tissues (choroid and retina) relative to IC50 for VEGFR2,[4]; through 8 months,above the IC50 for VEGFR2
same,vorolanib plasma levels,[5]; plasma,low pg/mL range
same,adverse findings,[5]; up to 6 inserts per eye,No adverse findings
